Source: patent US12678423B2, “Therapeutic agent for amyotrophic lateral sclerosis and composition for treatment” (KEIO UNIVERSITY, priority 2016, dated 2026)

Legend:
Format in all cases: cell-based, human
[1] = test system: motor neurons induced to differentiate from iPS cells derived from ALS patients (TDP-43-ALS) having a mutation in TDP-43; experiment: Phosphorylated TDP-43 protein inclusion formation, TDP-43-ALS motor neurons
Description: Therefore, on day 40 from the start of differentiation induction, each differentiation-induced motor neuron in Example I-1 was immunostained and the formation of phosphorylated TDP-43 protein inclusions was examined.
(§1) Using the differentiation-induced motor neurons in Example I-1, drugs which cause the ALS phenotype to be restored were screened from existing drug libraries with the neurite length, ectopic localization of FUS protein, stress granule formation, LDH leakage ratio, CV-caspase 3-positive ratio, phosphorylated TDP-43 protein inclusion formation, and the like as indices.
(§2) As a result of the screening, ropinirole was found as a promising therapeutic agent for ALS. Tables 5 and 6 show the improvement ratio (%) in the ALS phenotype due to adding ropinirole to the medium. Here, ropinirole was added to the medium on days 35 to 40 from the start of the differentiation induction of each iPS cell. Here, it is assumed that days 35 to 40 from the start of differentiation induction correspond to the early stage of the ALS disease.
(§3) The improvement ratio (%) of the ALS phenotype was calculated by Equation (1).
(§4) [formula] [In Equation (1), A represents a measurement value of motor neurons induced to differentiate from iPS cells derived from ALS patients in the absence of ropinirole, and B represents a measurement value of motor neurons induced to differentiate from iPS cells derived from ALS patients in the presence of ropinirole, and C represents a measurement value of motor neurons induced to differentiate from iPS cells derived from healthy subjects in the absence of ropinirole.]
(§5) Subsequently, in the same manner as above, the efficacy in cases of administering lower concentrations of ropinirole was evaluated.
(§6) Each drug was added to the medium at a final concentration of 10 μM.

[2] = test system: motor neurons induced to differentiate from iPS cells derived from ALS patients (FUS-ALS) having a mutation in FUS; experiment: Neurite length in late stage ALS disease, FUS-ALS (Example I-9); settings: final concentration 1 μM, added days 50 to 62 from start of differentiation induction, FIG. 14
Method: The efficacy of ropinirole was evaluated in the same manner as in Example I-8, except that the timing of adding ropinirole was changed to days 50 to 62 from the start of the differentiation induction of each iPS cell. It is assumed that days 50 to 62 after the start of induction of differentiation correspond to the late stage of the ALS disease.
Specifically, ropinirole was added to a medium of motor neurons induced to differentiate from iPS cells derived from ALS patients (FUS-ALS) having a mutation in FUS and motor neurons induced to differentiate from iPS cells derived from ALS patients (TDP-43-ALS) having a mutation in TDP-43 and the changes over time in the neurite length were measured. The measurement of neurite length was carried out in the same manner as in Example I-2. Ropinirole was added to the medium at a final concentration of 1 μM.
FIG. 14(a) is a graph showing the results of measurement of the changes over time in the neurite length of each motor neuron. In FIG. 14(a), the vertical axis represents the neurite length (relative value), the horizontal axis represents the number of days of culturing from the start of differentiation induction, and “+ROPI” represents the result of adding ropinirole to the medium. In addition, FIG. 14(b) is a graph enlarging the boxed portion of the graph of FIG. 14(a). […]

[3] = test system: motor neurons induced to differentiate from iPS cells derived from ALS patients (TDP-43-ALS) having a mutation in TDP-43; experiment: LDH leakage ratio, TDP-43-ALS motor neurons
Method: The leakage amount of LDH into the medium is an indicator of cytotoxicity. For measurement of the LDH leakage ratio, a commercially available kit (model “LDH Cytotoxicity Detection Kit”, Takara Bio Inc.) was used.
Here, ropinirole was added to the medium on days 35 to 40 from the start of the differentiation induction of each iPS cell. Here, it is assumed that days 35 to 40 from the start of differentiation induction correspond to the early stage of the ALS disease.
as §3, §4, §5, §6

[4] = test system: motor neurons induced to differentiate from iPS cells derived from SALS patients; experiment: CV caspase 3-positive ratio, sporadic ALS model (Example III-2); settings: final concentration 1 μM, days 35 to 40, measured on day 40, FIG. 11
Description: In the same manner as in Example I-1, iPS cells derived from sporadic ALS (may be referred to below as “SALS”) patients were differentiated into motor neurons. All the iPS cells used were derived from dermal fibroblasts. Below, each differentiated motor neuron is identified by the patient number from whom the neuron was derived.
In the same manner as in Example II-1, iPS cells derived from sporadic ALS (SALS) patients were induced to differentiate into motor neurons, and then ropinirole with a final concentration of 1 μM was added to the medium. More specifically, for the period of days 35 to 40 from the start of differentiation induction, ropinirole having a final concentration of 1 μM was added to the medium. In addition, a group for which ropinirole was not added to the medium was prepared as a control. In addition, for comparison, iPS cells derived from healthy subjects were differentiated into motor neurons in the same manner as in Example I-1. No ropinirole was added to the medium of these motor neurons. As the iPS cells derived from a healthy subject, the same cells as used in Example I-1 were used.
Subsequently, on day 40 from the start of differentiation induction, the ratio of CV caspase 3-positive neurons was measured for each motor neuron in the same manner as in Example I-3.
FIG. 11 is a graph showing the measurement results of the ratio of CV caspase 3-positive neurons. […]

[5] = test system: motor neurons induced to differentiate from iPS cells derived from ALS patients (FUS-ALS) having a mutation in FUS; experiment: Neurite length, FUS-ALS motor neurons (screening, Example I-8)
Method: For each differentiation-induced motor neuron in Example I-1, the changes over time in the neurite length were measured. A Bio station CT (Nikon Corp.) was used to measure the neurite length over time. FIG. 1 is a graph showing measurement results of changes over time in the neurite length. The vertical axis represents neurite length (relative value), and the horizontal axis represents the number of days of culturing from the start of differentiation induction.
as §1, §2, §3, §4, §5, §6

[6] = final concentration 0.1 μM, added days 35 to 40
[7] = final concentration 1 μM, added days 35 to 40
[8] = final concentration 10 μM, added days 35 to 40

CCCN(CCC)CCc1cccc2c1CC(=O)N2 [Ropinirole, 4-(2-di-n-propylaminoethyl)-2(3H)-indole] was tested, and the “TDP-43 inclusion formation improvement ratio” value ([1]; final concentration 0.1 nM) was 15.3%, the “TDP-43 inclusion formation improvement ratio” value ([1]; final concentration 1 nM) was 55.3% and the “TDP-43 inclusion formation improvement ratio” value ([1]; final concentration 10 nM) was 60.3%. For the same molecule, the “TDP-43 inclusion formation improvement ratio” value [1, 6] was 56.2%, the “TDP-43 inclusion formation improvement ratio” value [1, 7] was 69.2% and the “TDP-43 inclusion formation improvement ratio” value [1, 8] was 74.2%. For the same molecule, the “Neurite length (changes over time), late stage” value [2] was “neuroprotective action (maintenance of neurite length)”, the “LDH leakage ratio improvement ratio” value ([3]; final concentration 0.1 nM) was 10.2% and the “LDH leakage ratio improvement ratio” value ([3]; final concentration 1 nM) was 55.2%. The “LDH leakage ratio improvement ratio” value ([3]; final concentration 10 nM) was 56.6%, the “LDH leakage ratio improvement ratio” value [3, 6] was 58.3% and the “LDH leakage ratio improvement ratio” value [3, 7] was 78.1%. For the same molecule, the “LDH leakage ratio improvement ratio” value [3, 8] was 82.4%, the “Ratio of CV caspase 3-positive neurons” value [4] was “significantly reduced” and the “Neurite length improvement ratio” value ([5]; final concentration 0.1 nM) was 3.22%. The “Neurite length improvement ratio” value ([5]; final concentration 1 nM) was 32.3%, the “Neurite length improvement ratio” value ([5]; final concentration 10 nM) was 45.8% and the “Neurite length improvement ratio” value ([5]; final concentration 0.1 μM, added days 35 to 40 from start of differentiation induction) was 43.3%. The “Neurite length improvement ratio” value [5, 7] was 58.3% and the “Neurite length improvement ratio” value [5, 8] was 61.3%.
